Assay results as given in publication PMC3493529, “Molecular and Pharmacological Characterization of Serotonin 5-HT2α and 5-HT7 Receptors in the Salivary Glands of the Blowfly Calliphora vicina” (PLoS ONE, 2012).
Structures can show the parent of a compound that is named as a salt. Where two headings read alike, the source gives them in different places.

Key:
[1] = tested on: blowfly salivary glands; assay: 5-HT-induced TEP response of blowfly salivary glands, antagonists; format: cell-based, Calliphora vicina; parameters: key to suppression of the positive TEP phase: ++: complete; +: incomplete; -: no apparent effect; -/+: variable effect; key to suppression of the negative TEP phase: ++: high amplitude; +: low amplitude; -: no apparent effect; -/+: variable effect; details: for reversibility / suppression of the negative TEP phase / suppression of the positive TEP phase: TEP response evoked with 10 nM or 30 nM 5-HT
Protocol: (§1) The abdominal portions of salivary glands were dissected in physiological saline (in mM: 128 NaCl, 10 KCl, 2 CaCl2, 2.7 MgCl2, 3 Na-glutamate, 2.8 maleic acid, 10 D-glucose and 10 Tris-HCl, pH 7.2). Measurements of transepithelial potential (TEP) were performed by the oil-gap method with a DPA-2F differential amplifier (npi Electronic Instruments, Tamm, Germany). Data were sampled and digitized at 1 Hz (KUSB-3102 module for AD-conversion; Keithley, Germering, Germany) by using the software TestPoint (v4.1; Capital Equipment Corp, Billerica, MA, USA) for data acquisition and storage.

[2] = target: T1, Cv5-HT2α (Calliphora vicina, UniProt I7JA47); assay: Ca2+ signals (Fluo-4) in Cv5-HT2α-expressing HEK 293 cells, agonists; format: cell-based
T1 sequence (I7JA47 entry or part of it): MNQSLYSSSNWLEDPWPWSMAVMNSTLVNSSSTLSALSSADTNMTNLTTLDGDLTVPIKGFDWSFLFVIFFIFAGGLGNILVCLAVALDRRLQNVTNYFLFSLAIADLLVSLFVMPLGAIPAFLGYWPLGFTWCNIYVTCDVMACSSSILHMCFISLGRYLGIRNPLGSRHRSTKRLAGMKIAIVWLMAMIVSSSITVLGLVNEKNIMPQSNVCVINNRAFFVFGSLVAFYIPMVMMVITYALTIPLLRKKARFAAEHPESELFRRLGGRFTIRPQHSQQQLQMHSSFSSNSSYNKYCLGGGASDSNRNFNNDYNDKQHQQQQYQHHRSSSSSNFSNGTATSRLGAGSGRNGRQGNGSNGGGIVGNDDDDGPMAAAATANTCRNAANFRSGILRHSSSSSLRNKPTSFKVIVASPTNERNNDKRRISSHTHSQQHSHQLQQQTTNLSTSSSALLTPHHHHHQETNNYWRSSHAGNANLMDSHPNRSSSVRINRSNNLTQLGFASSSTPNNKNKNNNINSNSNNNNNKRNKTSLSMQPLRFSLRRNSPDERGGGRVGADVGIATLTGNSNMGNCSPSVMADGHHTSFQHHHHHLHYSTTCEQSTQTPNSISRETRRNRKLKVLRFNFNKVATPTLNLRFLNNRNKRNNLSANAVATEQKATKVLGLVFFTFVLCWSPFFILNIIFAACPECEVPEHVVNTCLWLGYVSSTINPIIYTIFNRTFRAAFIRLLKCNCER
Protocol: (§2) We applied a previously established protocol to generate cell lines that constitutively expressed either Cv5-HT2α or Cv5-HT7. […] (flpTM cells, provided by Sibion biosciences GmbH, Jülich, Germany). Approximately 8 µg of the respective expression vectors were introduced into ∼4×10^5 cells by a modified calcium-phosphate method. Stably transfected cells were selected in the presence of the antibiotics Blasticidin (0.1 mg/ml; Cv5-HT2α) or G418 (0.8 mg/ml; Cv5-HT7). Expression of Cv5-HT2α and Cv5-HT7 was monitored by Western blotting with commercially available anti-His antibodies (anti-6x His Epitope Tag; Rockland Immunochemicals Inc, Gilbertsville, USA) and anti-HA antibodies (clone 3F10; Roche, Penzberg, Germany), respectively.
(§3) The ability of Cv5-HT2α to induce Ca^2+ signals in the transfected cell line was measured with the Ca^2+-sensitive dye Fluo-4. Similarly, Cv5-HT7-induced cAMP production was indirectly monitored by the cAMP-dependent activation of the cyclic nucleotide-gated ion channel in flpTM cells (see above). The cyclic nucleotide-gated ion channel is permeable to Ca^2+ ions and thus an increase in [cAMP]i leads to an influx of Ca^2+ ions, which can be detected with Fluo-4. […] After 1 h, the loading solution was substituted for dye-free ES. To inhibit cAMP hydrolysis in Cv5-HT7-expressing cells, ES containing 100 µM isobutylmethylxanthine (IBMX) was used. Plates were transferred into a fluorescence reader (FLUOstar Omega; bmg, Offenburg, Germany) and Fluo-4 fluorescence was monitored. […] Fluorescence emission was detected at 520 nm. Once the basal fluorescence in each well had reached a stable value, various concentrations of the respective ligands were added. The resulting changes in Fluo-4 fluorescence were recorded automatically.

[3] = target: T2, Cv5-HT7 (Calliphora vicina, UniProt I7IA71); assay: cAMP-dependent CNG channel Ca2+ influx (Fluo-4) in Cv5-HT7-expressing flpTM cells, agonists; format: cell-based; details: for Cv5-HT7 log EC50 / EC50: Cv5-HT7-expressing flpTM cells, 100 µM IBMX
T2 sequence (I7IA71 entry or part of it): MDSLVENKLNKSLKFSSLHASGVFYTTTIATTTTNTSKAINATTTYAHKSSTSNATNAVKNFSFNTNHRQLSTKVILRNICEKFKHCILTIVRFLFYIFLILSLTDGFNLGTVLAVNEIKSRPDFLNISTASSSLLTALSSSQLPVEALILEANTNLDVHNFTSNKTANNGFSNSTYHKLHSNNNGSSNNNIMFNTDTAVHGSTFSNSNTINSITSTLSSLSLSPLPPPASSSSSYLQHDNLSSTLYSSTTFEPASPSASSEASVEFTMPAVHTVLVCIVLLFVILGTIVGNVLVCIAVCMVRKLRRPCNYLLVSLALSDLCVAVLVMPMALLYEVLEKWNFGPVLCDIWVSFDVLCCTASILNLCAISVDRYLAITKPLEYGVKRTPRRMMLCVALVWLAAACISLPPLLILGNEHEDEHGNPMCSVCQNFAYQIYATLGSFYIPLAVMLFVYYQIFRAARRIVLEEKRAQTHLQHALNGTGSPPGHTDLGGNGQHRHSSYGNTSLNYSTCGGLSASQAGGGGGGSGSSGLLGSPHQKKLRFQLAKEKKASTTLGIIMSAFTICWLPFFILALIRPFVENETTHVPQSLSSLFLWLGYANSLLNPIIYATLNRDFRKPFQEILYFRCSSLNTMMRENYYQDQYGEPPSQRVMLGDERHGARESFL
Protocol: as §2, §3

[4] = tested on: blowfly salivary glands; assay: Transepithelial potential (TEP) of blowfly salivary glands, agonists; format: cell-based, Calliphora vicina; parameters: key to negative TEP phase / positive TEP phase: ++: high amplitude; +: low amplitude; -: no apparent effect; -/+: variable effect
Protocol: as §1

[5] = target: T2, Cv5-HT7; assay: Inhibition of 5-HT-induced Fluo-4 signals in Cv5-HT7-expressing cells; format: cell-based
Protocol: as §2, with “Cv5-HT7. For Cv5-HT2α expression, human embryonic kidney cells (HEK 293; ECACC, Salisbury, UK) were chosen.” for “Cv5-HT7.”
(§4) The ability of Cv5-HT2α to induce Ca^2+ signals in the transfected cell line was measured with the Ca^2+-sensitive dye Fluo-4. Similarly, Cv5-HT7-induced cAMP production was indirectly monitored by the cAMP-dependent activation of the cyclic nucleotide-gated ion channel in flpTM cells (see above). The cyclic nucleotide-gated ion channel is permeable to Ca^2+ ions and thus an increase in [cAMP]i leads to an influx of Ca^2+ ions, which can be detected with Fluo-4. Cells were grown in 96-well plates to a density of ∼3×10^4 (Cv5-HT2α) or 1.5×10^4 (Cv5-HT7) and then incubated in extracellular solution (ES in mM: 120 NaCl, 5 KCl, 2 CaCl2, 2 MgCl2, 10 glucose, 10 HEPES, pH 7.4) containing 3 mM probenecid, 0.02% (w/v) Pluronic® F-127 (Sigma) and 2 µM Fluo-4AM (Invitrogen). After 1 h, the loading solution was substituted for dye-free ES. To inhibit cAMP hydrolysis in Cv5-HT7-expressing cells, ES containing 100 µM isobutylmethylxanthine (IBMX) was used. Plates were transferred into a fluorescence reader (FLUOstar Omega; bmg, Offenburg, Germany) and Fluo-4 fluorescence was monitored. The excitation wavelength was 485 nm. Fluorescence emission was detected at 520 nm. Once the basal fluorescence in each well had reached a stable value, various concentrations of the respective ligands were added. The resulting changes in Fluo-4 fluorescence were recorded automatically.
(§5) Changes in Ca^2+-dependent Fluo-4 signals were registered automatically. Data represent the means±SD of eight replicates. […] Relative fluorescence (%) is normalized to the values obtained with 100 nM 5-HT in the absence of antagonists. […] Relative fluorescence (%) is normalized to the values obtained with 6 nM 5-HT in the absence of antagonists.

[6] = target: T1, Cv5-HT2α; assay: Inhibition of 5-HT-induced Ca2+ signals in Cv5-HT2α-expressing cells; format: cell-based
Protocol: as §2, with “Cv5-HT7. For Cv5-HT2α expression, human embryonic kidney cells (HEK 293; ECACC, Salisbury, UK) were chosen.” for “Cv5-HT7.”
as §4, §5

[7] = Ca2+-dependent Fluo-4 signal, Cv5-HT2α-expressing HEK 293 cells
[8] = Fluo-4 signal, read-out: Cv5-HT7 EC50
[9] = Cv5-HT2α EC50, Ca2+-dependent Fluo-4 signal, Cv5-HT2α-expressing HEK 293 cells
[10] = Cv5-HT2α log EC50, Ca2+-dependent Fluo-4 signal, Cv5-HT2α-expressing HEK 293 cells
[11] = in the presence of 100 nM 5-HT, read-out: Cv5-HT2α IC50
[12] = in the presence of 6 nM 5-HT, read-out: Cv5-HT7 IC50
[13] = in the presence of 6 nM 5-HT, read-out: Cv5-HT7 log IC50 (converted)
[14] = in the presence of 100 nM 5-HT, read-out: Cv5-HT2α log IC50 (converted)

CN1CCN(C2=Nc3cc(Cl)ccc3Nc3ccccc32)CC1 [clozapine]
effect on 5-HT-induced TEP response ([1]; 1 µM, 30 nM 5-HT): completely and selectively inhibited the positive TEP phase
reversibility ([1]; 1 µM): yes
suppression of the negative TEP phase ([1]; 1 µM): -
suppression of the positive TEP phase ([1]; 1 µM): ++

CCN(CC)C(=O)N[C@H]1C=C2c3cccc4[nH]cc(c34)C[C@H]2N(C)C1 [R(+)-lisuride]
Cv5-HT2α EC50 [2, 7]: no effect
Cv5-HT2α log EC50 [2, 7]: no effect
Cv5-HT7 log EC50 ([3]; Fluo-4 signal): −8.75±0.05
EC50 [3, 8]: 0.002 µM
efficacy at Cv5-HT7 compared to 5-HT ([3]; highest agonist concentrations, normalized to 5-HT maximum): very low efficacy
TEP change of salivary glands ([4]; 30 nM): irreversible positive-going TEP change
negative TEP phase ([4]; 0.03-0.3 µM): -
positive TEP phase ([4]; 0.03-0.3 µM): ++
reversibility ([4]; 0.03-0.3 µM): no (within 20 min)

CCCN(CCC)C1CCc2cccc(O)c2C1 (racemic) [8-OH-DPAT, (+/−)-8-hydroxy-2-(dipropylamino)tetralin]
EC50 [2, 9]: 62 µM
EC50 [2, 10]: 61.7 µM
EC50 [3, 8]: 7.9 µM
EC50 ([3]; Fluo-4 signal, read-out: Cv5-HT7 log EC50 (converted)): 7.94 µM

CSc1ccc2c(c1)C(N1CCN(C)CC1)Cc1ccccc1S2 (stereo not drawn) [methiothepin]
antagonistic effect on Cv5-HT7 ([5]; high concentrations (10 µM)): slight antagonistic effect
Cv5-HT7 IC50 ([5]; in the presence of 6 nM 5-HT): not calculable
Cv5-HT7 log IC50 ([5]; in the presence of 6 nM 5-HT): not calculable
Cv5-HT2α log IC50 ([6]; in the presence of 100 nM 5-HT): −5.92±0.06
IC50 [6, 11]: 1.2 µM
reversibility ([1]; 3 µM): no
suppression of the negative TEP phase ([1]; 3 µM): -/+
suppression of the positive TEP phase ([1]; 3 µM): ++
effect on 5-HT-induced TEP response ([1]; ≥1 µM): completely abolished the positive TEP phase

NCCc1c[nH]c2ccc(C(N)=O)cc12 [5-CT, 5-carboxamidotryptamine]
Cv5-HT2α log EC50 [2, 7]: −4.29±0.05
EC50 ([2]; Ca2+-dependent Fluo-4 signal, Cv5-HT2α-expressing HEK 293 cells, read-out: Cv5-HT2α EC50): 51 µM
Cv5-HT7 log EC50 ([3]; Fluo-4 signal): −6.37±0.02
EC50 [3, 8]: 0.43 µM
TEP change of salivary glands ([4]; 0.3 µM): only a positive-going TEP change
negative TEP phase ([4]; 0.3 µM): -
positive TEP phase ([4]; 0.3 µM): +
reversibility ([4]; 0.3 µM): yes
negative TEP phase ([4]; 10 µM): ++
positive TEP phase ([4]; 10 µM): ++
reversibility ([4]; 10 µM): yes
TEP change of salivary glands ([4]; concentrations 1 µM): biphasic TEP response

COc1ccc2[nH]cc(CCN)c2c1 [5-MeOT, 5-methoxytryptamine]
EC50 [2, 9]: 0.067 µM
EC50 [2, 10]: 0.0676 µM
EC50 ([3]; Cv5-HT7 EC50, Fluo-4 signal): 0.95 µM
EC50 ([3]; Cv5-HT7 log EC50, Fluo-4 signal): 0.955 µM
TEP change of salivary glands ([4]; 30 nM or 100 nM): only a negative-going TEP change
negative TEP phase ([4]; 0.03-0.1 µM): ++
positive TEP phase ([4]; 0.03-0.1 µM): -
reversibility ([4]; 0.03-0.1 µM): yes
negative TEP phase ([4]; 1-100 µM): ++
positive TEP phase ([4]; 1-100 µM): +
reversibility ([4]; 1-100 µM): yes
TEP change of salivary glands ([4]; 1–100 µM): biphasic response

O=C(c1ccc(F)cc1)C1CCN(CCn2c(=O)[nH]c3ccccc3c2=O)CC1 [ketanserin]
IC50 [5, 12]: 1.5 µM
IC50 [5, 13]: 1.45 µM
IC50 [6, 11]: 14 µM
IC50 [6, 14]: 14.1 µM

NCCc1c[nH]cn1 [histamine]
effect on [Ca2+]i in Cv5-HT2α-expressing cells ([2]; 1 µM biogenic amine, non-transfected cells as control): stimulated Ca^2+ signals

O=C(CCCN1CCC2(CC1)C(=O)NCN2c1ccccc1)c1ccc(F)cc1 [spiperone]
IC50 [5, 12]: 0.28 µM
IC50 [5, 13]: 0.275 µM
Cv5-HT2α IC50 ([6]; in the presence of 100 nM 5-HT): no effect
Cv5-HT2α log IC50 ([6]; in the presence of 100 nM 5-HT): no effect
reversibility ([1]; 1-10 µM): yes
suppression of the negative TEP phase ([1]; 1-10 µM): -
suppression of the positive TEP phase ([1]; 1-10 µM): +
effect on 5-HT-induced TEP response ([1]; 1–10 µM): reversibly but incompletely inhibited the positive phase

CN(C)CCCSc1ccccc1NC(=O)/C=C/c1ccccc1 [cinanserin, cinanserin hydrochloride]
IC50 [5, 12]: 0.4 µM
IC50 [5, 13]: 0.398 µM
IC50 [6, 11]: 30 µM
IC50 [6, 14]: 29.5 µM
effect on 5-HT-induced TEP response ([1]; 10 µM): reversibly but incompletely inhibited the positive phase
reversibility ([1]; 10 µM): yes
suppression of the negative TEP phase ([1]; 10 µM): -
suppression of the positive TEP phase ([1]; 10 µM): +

Cc1ccc(N(CC2=NCCN2)c2cccc(O)c2)cc1 [phentolamine]
IC50 [5, 12]: 4.7 µM
IC50 [5, 13]: 4.68 µM
IC50 [6, 11]: 198 µM
IC50 [6, 14]: 200 µM

CC1CCN(CC[C@H]2CCCN2S(=O)(=O)c2cccc(O)c2)CC1 [SB-269970]
Cv5-HT7 log IC50 ([5]; in the presence of 6 nM 5-HT): −8.06±0.21
inhibitory efficacy at Cv5-HT7 (reduction of the 5-HT-evoked cellular response) ([5]; in the presence of 6 nM 5-HT): ~15%
IC50 [5, 12]: 0.009 µM
Cv5-HT2α log IC50 ([6]; in the presence of 100 nM 5-HT): −4.27±0.30
IC50 [6, 11]: 53 µM

COC(=O)[C@@H]1[C@H]2C[C@H]3c4[nH]c5ccccc5c4CCN3C[C@@H]2CC[C@@H]1O [yohimbine]
IC50 ([5]; Cv5-HT7 IC50, in the presence of 6 nM 5-HT): 192 µM
IC50 ([5]; Cv5-HT7 log IC50, in the presence of 6 nM 5-HT): 191 µM
IC50 ([6]; Cv5-HT2α IC50, in the presence of 100 nM 5-HT): 2.9 µM
IC50 ([6]; Cv5-HT2α log IC50, in the presence of 100 nM 5-HT): 2.88 µM
